Earlier results in patent publication US20050250674A1, “Nutritional and food supplement preparation comprising creatine and orotic acid complexes, derivatives and analogs” (priority 2004, published 2005).

Conditions: oral ingestion of about 20 to 30 g per day, divided between several doses, for several days

## CN(CC(=O)O)C(=N)N [creatine, methyl guanidine-acetic acid]
  increase in human skeletal muscle total creatine content: greater than 20%
